Values of other authors as cited in patent US20080015265A1, “Methods of treating obesity using satiety factors” (priority 2006, published 2008).
Where two headings read alike, the source gives them in different places. Where no end group is shown, it is not given here.

Assays:
[1] = for food intake (feeding) / weight gain: rats and/or mice
[2] = human subjects; peripheral or intravenous administration
[3] = for food intake: several species including humans
[4] = species not stated
[5] = test system: hepatocyte

With hypocretins/orexins as the molecule, how does the appetite ([1]; rats) read?
The appetite was “stimulate appetite”.

And the “food intake (feeding)” value [1]?
The value was “stimulate appetite and food intake”.

For “galanin (GWTLNSAGYLLGPHAVGNHRSFSDKNGLTS; Galanin; UniProt P22466 33-62, looked up)”, which “food intake (feeding)” value [1] is on record?
The value was “stimulate food intake”.

With prolactin-releasing peptide as the molecule, how does the food intake (animals) read?
Its food intake is “increase food intake”.

What does the source list for “urocortin (DNPSLSIDLTFHLLRTLLELARTQSQRERAEQNRIIFDSV; ends and bridges not checked; UniProt P55089 83-122, looked up)”?
food intake (feeding) [1]: reduces feeding; drinking ([1]; rats, infused): reduces feeding and drinking

Which food intake [2] does the source give for “pancreatic peptide (APLEPVYPGDNATPEQMAQYAADLRRYINMLTRPRY; ends and bridges not checked; UniProt P01298 30-65, looked up) [PP, 36-amino acid peptide of the NPY family produced in the pancreatic islets]” here?
Its food intake is “sustained decrease in appetite and food intake”.

What about the hunger / appetite [2] of the same molecule?
The hunger / appetite was “sustained decrease in appetite”.

And the “food intake (feeding)” value [1]?
Its value is “reduces food intake”.

What about the weight gain [1] of the same molecule?
Its weight gain is “reduces food intake and weight gain”.

For “vasopressin (CYFQNCPRG; ends and bridges not checked; cysteine pairing not given here; UniProt P01185 20-28, looked up)”, which food intake (animals) is on record?
The food intake was “reduce food intake”.

Which food intake (animals) does the source give for “neuropeptide B (WYKPAAGHSSYSVGRAAGLLSGLRRSPYA; Neuropeptide B-29; UniProt Q8NG41 25-53, looked up) [ligand for orphan G protein-coupled receptors]” here?
The food intake was “stimulate food intake”.

With “bombesin [bombesin or bombesin-like peptide]” as the molecule, how does the food intake [3] read?
Its food intake is “Feed suppression”.

Which gastrointestinal motility [4] does the source give for “motilin (FVPIFTYGELQRMQEKERNKGQ; Motilin; UniProt P12872 26-47, looked up) [polypeptide hormone secreted by Mo cells of the small intestine]” here?
Its gastrointestinal motility is “increase the gastrointestinal motility”.

With “somatostatin (AGCKNFFWKTFTSC; ends and bridges not checked; cysteine pairing not given here; UniProt P61278 103-116, looked up)” as the molecule, how does the food intake (animals) read?
Its food intake is “reduce food intake”.

Which food intake [2] does the source give for PYY3-36 here?
Its food intake is “significant food intake reduction”.

And the “food intake (feeding)” value [1]?
The value was “inhibits food intake”.

What about the weight gain [1] of the same molecule?
Its weight gain is “reduced weigh gain”.

For `CC[C@H](C)[C@H](NC(=O)[C@@H]1CCCN1C(=O)CNC(=O)[C@H](Cc1ccccc1)NC(=O)[C@H](CC(N)=O)NC(=O)[C@H](CC(N)=O)NC(=O)[C@H](CO)NC(=O)[C@H](CO)NC(=O)[C@H](Cc1c[nH]cn1)NC(=O)[C@@H](NC(=O)[C@H](CC(C)C)NC(=O)[C@H](Cc1ccccc1)NC(=O)[C@H](CC(N)=O)NC(=O)[C@H](C)NC(=O)[C@H](CC(C)C)NC(=O)[C@H](CCCNC(=N)N)NC(=O)[C@H](CCC(N)=O)NC(=O)[C@@H](NC(=O)[C@H](C)NC(=O)[C@@H]1CSSC[C@H](NC(=O)[C@@H](N)CCCCN)C(=O)N[C@@H](CC(N)=O)C(=O)N[C@@H]([C@@H](C)O)C(=O)N[C@@H](C)C(=O)N[C@@H]([C@@H](C)O)C(=O)N1)[C@@H](C)O)C(C)C)C(=O)N[C@@H](CC(C)C)C(=O)N1CCC[C@H]1C(=O)N1CCC[C@H]1C(=O)N[C@H](C(=O)N[C@@H](CC(N)=O)C(=O)N[C@H](C(=O)NCC(=O)N[C@@H](CO)C(=O)N[C@@H](CC(N)=O)C(=O)N[C@H](C(=O)N[C@@H](Cc1ccc(O)cc1)C(N)=O)[C@@H](C)O)C(C)C)[C@@H](C)O` [pramlintide, reference compound], which “body weight (weight loss / weight gain)” value [4] is on record?
Its value is “sustained weigh loss”.

And the food intake [4]?
The food intake was “decreased food intake”.

With “amylin (KCNTATCATQRLANFLVHSSNNFGAILSSTNVGSNTY; not fully specified (C-terminus, bridges); cysteine pairing not given here; UniProt P10997 34-70, looked up) [37 amino acid peptide released by the β cells of the pancreas]” as the molecule, how does the “body weight (weight loss / weight gain)” value [4] read?
Its value is “sustained weigh loss”.

And the food intake [4]?
The food intake was “decreased food intake”.

With enterostatin as the molecule, how does the dietary fat preference ([1]; mammals, demonstrated in rodent studies) read?
The dietary fat preference was “reduce dietary fat preference”.

For `O=C1N[C@@H](Cc2cnc[nH]2)C(=O)N2CCC[C@@H]12` [cyclo-his-pro], which food intake [4] is on record?
Its food intake is “reduce food intake”.

With “ghrelin (GSSFLSPEHQRVQQRKESKKPPAKLQPR; ends and bridges not checked; also: octanoyl acylation; UniProt Q9UBU3 24-51, looked up) [28 amino acid acylated peptide produced mainly by the stomach]” as the molecule, how does the body weight ([3]; rodents and persons) read?
Its body weight is “increase body weight”.

What about the fat oxidation ([3]; rodents and persons) of the same molecule?
The fat oxidation was “reducing fat oxidation”.

And the food intake [3]?
Its food intake is “stimulating food intake”.

What does the source list for `C=CC1=C(C)c2cc3[nH]c(cc4nc(cc5[nH]c(cc1n2)c(C)c5CCC(=O)O)C(CCC(=O)O)=C4C)c(C)c3C=C` [protoporphyrin]?
body weight (weight loss / weight gain) [4]: decrease food intake and body weight; food intake [4]: decrease food intake

Which “body weight (weight loss / weight gain)” value [4] does the source give for “growth hormone-releasing hormone (YADAIFTNSYRKVLGQLSARKLLQDIMSRQQGESNQERGARARL; ends and bridges not checked; UniProt P01286 32-75, looked up)” here?
Its value is “stimulate food intake and weight gain”.

And the food intake [4]?
The food intake was “stimulate food intake”.

Which food intake [2] does the source give for “Glucagon-like peptide-1 (7-36)-amide (HAEGTFTSDVSSYLEGQAAKEFIAWLVKGR-NH2; UniProt P01275 98-127, looked up) [GLP-1]” here?
Its food intake is “reduce food intake”.

And the hunger / appetite [2]?
Its hunger / appetite is “suppress hunger”.

For β casomorphin, which food intake (animals with a high fat diet) is on record?
The food intake was “increase food intake”.

And the food intake (animals with a low fat diet)?
Its food intake is “decrease food intake”.

With oxytocin as the molecule, how does the food intake (animals) read?
Its food intake is “increase food intake”.

For neuropeptide Y, which food intake (animals) is on record?
Its food intake is “stimulate food intake”.

Which food intake (animals) does the source give for beacon here?
The food intake was “stimulate food intake”.

And the weight gain (animals)?
The weight gain was “stimulate food intake and weight gain”.

For “NPW: ligand for orphan G protein-coupled receptors (WYKHVASPRYHTVGRAAGLLMGL; Neuropeptide W-23; UniProt Q8N729 33-55, looked up)”, which food intake (animals) is on record?
Its food intake is “stimulate food intake”.

Which “body weight (weight loss / weight gain)” value [4] does the source give for leptin here?
The value was “decrease food intake and body weigh”.

And the food intake [4]?
The food intake was “decrease food intake”.

For neurotensin, which food intake [4] is on record?
Its food intake is “decrease food intake”.

With obestatin as the molecule, how does the jejunal contraction ([1]; rats) read?
The jejunal contraction was “inhibited jejunal contraction”.

What about the “food intake (feeding)” value [1] of the same molecule?
Its value is “suppressed food intake”.

And the weight gain [1]?
The weight gain was “decreased body weigh gain”.

With “corticotropin-releasing hormone (SEEPPISLDLTFHLLREVLEMARAEQLAQQAHSNRKLMEII; ends and bridges not checked; UniProt P06850 154-194, looked up)” as the molecule, how does the food intake (animals) read?
The food intake was “reduce food intake”.

Which energy intake ([3]; administered to rodents and humans) does the source give for “oxyntomodulin (HSQGTFTSDYSKYLDSRRAQDFVQWLMNTKRNRNNIA; Oxyntomodulin; UniProt P01275 53-89, looked up) [37 amino acid peptide, product of the proglucagon gene]” here?
Its energy intake is “reduce energy intake”.

For dynorphin, which food intake (animals) is on record?
The food intake was “stimulate food intake”.

With “neuropeptide K (DADSSIEKQVALLKALYGHGQISHKRHKTDSFVGLM; ends and bridges not checked; UniProt P20366 72-107, looked up)” as the molecule, how does the food intake (animals) read?
Its food intake is “inhibit food intake”.

Which “food intake (feeding)” value [1] does the source give for “galanin-like peptide (APAHRGRGGWTLNSAGYLLGPVLHLPQMGDQDGKRETALEILDLWKAIDGLPYSHPPQPS; Galanin-like peptide; UniProt Q9UBC7 25-84, looked up)” here?
The value was “stimulate food intake”.

B1: nesfatin (protein, UniProt P80303 25-106, looked up)
Nesfatin-1: VPIDIDKTKVQNIHPVESAKIEPPDTGLYYDEYLKQVIDVLETDKHFREKLQKADIEEIKSGRLSKELDLVSHHVRTKLDEL
modifications: Nesfatin-1
notes: produced by the brain
With B1 as the molecule, how does the food intake (animals) read?
The food intake was “reduce food intake in a dose-dependent manner”.

B2: adiponectin (protein, UniProt Q15848 19-244, looked up)
Adiponectin: ETTTQGPGVLLPLPKGACTGWMAGIPGHPGHNGAPGRDGRDGTPGEKGEKGDPGLIGPKGDIGETGVPGAEGPRGFPGIQGRKGEPGEGAYVYRSAFSVGLETYVTIPNMPIRFTKIFYNQQNHYDGSTGKFHCNIPGLYYFAYHITVYMKDVKVSLFKKDKAMLFTYDQYQENNVDQASGSVLLHLEVGDQVWLQVYGEGERNGLYADNDNDSTFTGFLLYHDTN
notes: non-gut peptide satiety factor
With B2 as the molecule, how does the “sensitivity of the hepatocyte to insulin” value [5] read?
Its value is “increase the sensitivity of the hepatocyte to insulin”.

B3: ciliary neurotrophic factor (protein, UniProt P26441 1-200, looked up)
Ciliary neurotrophic factor: MAFTEHSPLTPHRRDLCSRSIWLARKIRSDLTALTESYVKHQGLNKNINLDSADGMPVASTDQWSELTEAERLQENLQAYRTFHVLLARLLEDQQVHFTPTEGDFHQAIHTLLLQVAAFAYQIEELMILLEYKIPRNEADGMPINVGDGGLFEKKLWGLKVLQELSQWTVRSIHDLRFISSHQTGIPARGSHYIANNKKM
With B3 as the molecule, how does the “body weight (weight loss / weight gain)” value [4] read?
The value was “cause weigh loss”.

B4: cholecystokinin (peptide, UniProt P06307 21-115, looked up)
Cholecystokinin: QPVPPADPAGSGLQRAEEAPRRQLRVSQRTDGESRAHLGALLARYIQQARKAPSGRMSIVKNLQNLDPSHRISDRDYMGWMDFGRRSAEEYEYPS
notes: gut peptide released mainly in response to dietary fat
Which food intake [3] does the source give for B4 here?
The food intake was “dose-dependent inhibition of food intake”.

B5: apolipoprotein A-IV (protein, UniProt P06727 21-396, looked up)
Apolipoprotein A-IV: EVSADQVATVMWDYFSQLSNNAKEAVEHLQKSELTQQLNALFQDKLGEVNTYAGDLQKKLVPFATELHERLAKDSEKLKEEIGKELEELRARLLPHANEVSQKIGDNLRELQQRLEPYADQLRTQVSTQAEQLRRQLTPYAQRMERVLRENADSLQASLRPHADELKAKIDQNVEELKGRLTPYADEFKVKIDQTVEELRRSLAPYAQDTQEKLNHQLEGLTFQMKKNAEELKARISASAEELRQRLAPLAEDVRGNLRGNTEGLQKSLAELGGHLDQQVEEFRRRVEPYGENFNKALVQQMEQLRQKLGPHAGDVEGHLSFLEKDLRDKVNSFFSTFKEKESQDKTLSLPELEQQQEQQQEQQQEQVQMLAPLES
notes: as for B2
Which food intake (animals) does the source give for B5 here?
The food intake was “dose dependent reduction of food intake”.
